{"source": "patent US10420747B2", "about": "(priority 2016, dated 2019)", "key": {"LNCaP-MDV3100-R cells": {"test_system": "LNCaP-MDV3100-R cells", "test": "SRB cell growth assay, MDV3100-resistant cells", "conditions": "72 hours, 20 μM BIC, 20 μM MDV, 0.1 μM AIL", "method": "Cell growth was determined by SRB assay.\nThe half maximal inhibitory concentration (IC50) was calculated using GraphPad Prism 5.0 (GraphPad, San Diego, Calif.)."}, "LNCaP cells": {"test_system": "LNCaP cells", "test": "SRB cell growth assay, androgen-starved cells with R1881", "conditions": "0.1 nM R1881, 96 hours, 10 μM BIC, 10 μM MDV, 0.1-0.4 μM AIL"}, "VCaP xenografts": {"test_system": "VCaP xenografts", "test": "Subcutaneous VCaP xenograft model", "format": "in vivo, mouse", "conditions": "10 mg/kg MDV or 2 mg/kg AIL i.p., 32 days", "method": "(A-C) 22RV1 (A), LNCaP (B) and Vcap (C) cells were injected with 0.1 ml PBS (22RV1) or Matrigel (LNCaP, Vcap) into the right flank of BALB/c-nude. […] Tumor volume and the mouse body weight were measured once a week. The mice were sacrificed after 28 days (22RV1), 49 days (LNCaP) or 32 days (Vcap) and the tumors from each group of mice were harvested and images were taken. […] Data represent the mean±s.d.\nBALB/c-nude mice (6-8 weeks old, male) were purchased from the Sino-British Sippr/BK Lab Animal Co., Ltd (Shanghai, China) and maintained under pathogen-free conditions. The animal use protocol was approved by the Institutional Animal Care and Use Committee of East China Normal University. […] The tumor volume and mouse body weight were measured twice a week. The tumor volume was calculated using the following equation: tumor volume (V)=length×width×width×0.52.\nBALB/c-nude mice (6-8 week old, male) were purchased from the Sino-British Sippr/BK Lab Animal Co., Ltd (Shanghai, China) and maintained under pathogen-free conditions. […] The tumor volume and mouse body weight were measured twice a week. The tumor volume was calculated using the following equation: tumor volume (V)=length×width×width×0.52."}, "[1]": {"test_system": "22RV1-luc orthotopic xenografts", "test": "Orthotopic castration resistant prostate cancer model", "format": "in vivo, mouse", "conditions": "castrated mice, 2 mgkg^−1 AIL or 10 mgkg^−1 MDV i.p. once per day, 28 days", "method": "(A,B) The dorsolateral prostate of male BALB/c-nude mice was injected with 1×10^6 22RV1-luc cells in 30 μl matrigel. […] After 28 days, mice were sacrificed and the local tumors were removed and volumes and weight of the tumors were measured (A).\nFor orthotopic castration resistant prostate cancer xenografts, male BALB/c-nude mice (8-9 weeks of age) were anesthetized using 150 mgkg^−1 2,2,2-tribromethanol plus 350 mgkg^−1 tert-amyl alcohol and then 5×10^5 22RV1-luc cells suspended in 30 μl 50% Matrigel were surgically injected into the dorsolateral prostate lobes. One week after injection, the tumor-bearing mice were castrated and randomly assigned to three groups. […] Prostate tumor growth and local metastasis were monitored weekly using the IVIS Imaging System (Xenogen Corporation, Alameda, Calif.). Images and measurements of bioluminescent signals were acquired and analyzed using LivingImage and Xenogen software^52."}, "c4-2b": {"test_system": "c4-2b", "test": "SRB cell growth assay, androgen-starved cells with R1881", "conditions": "androgen-starved c4-2b, 0.1 nM R1881, 96 hours; 10 μM BIC, 10 μM MDV, 0.1 μM AIL"}, "22RV1": {"test_system": "22RV1", "test": "SRB cell growth assay, androgen-starved cells with R1881", "conditions": "androgen-starved 22RV1, 0.1 nM R1881, 96 hours; 10 μM BIC, 10 μM MDV, 0.1 μM AIL"}, "[2]": {"test_system": "AR-regulated genes (PSA, TMPRSS2, FKBP5, SLC45A3, NDRG1 mRNA)", "test": "Quantitative real-time PCR of AR-regulated genes", "conditions": "22RV1 cells, 10 nM R1881, 10 μM MDV or 0.2 μM AIL, 12 hours", "method": "The genes expression was measured byquantitative-PCR.\nTotal RNA was extracted using TRIzol (Takara, Japan) according to the manufacturer's instructions. 1 μg of total RNA was used for cDNA synthesis using a cDNA reverse transcription kit (Takara, Japan). Real-time PCR was performed in triplicate using gene-specific primers on a Stratagene Mx3005P PCR system (Agilent Technologies) machine. The mRNA expression levels were normalized to β-actin expression or GAPDH."}, "HSP90 and HSP70": {"test_system": "HSP90 and HSP70", "test": "Western blotting of AR molecular chaperones", "format": "cell-based, human", "conditions": "LNCaP and 22RV1, 12 hours", "method": "Cells were lysed and AR, HSP90 and HSP70 protein levels were measured by Western blot analysis.\nLysates were fractionated on polyacrylamide gels and transferred to nitrocellulose. The blots were probed with specific antibodies followed by secondary antibody then membranes were examined using the LI-COR Odyssey infrared imaging system (LI-COR Biotechnology, Lincoln Nebr.). […] The β-actin antibody (1:10000) was purchased from Sigma (St. Louis, Mo.)."}, "in vivo": {"test": "in vivo", "design": "species or system rat", "conditions": "for T1/2: rats", "procedure": "A simple and sensitive method for the determination of Ailanthonein plasma was developed, using high-performance liquid chromatography-tandem mass spectrometry (HPLC-MS/MS). Brusatol was used as an internal standard. […] The details of this HPLC-MS/MS method and sample preparation are described in our previous study^37.\nThe statistical analysis was performed by SPSS 22.0 software. The differences between control group and experimental groups were determined by one-way ANOVA. Since treatment and time course was investigated, two-way ANOVA followed by post hoc test was also applied. Data was expressed as mean and standard deviation (s.d.) and P<0.05 was considered significant. Pharmacokinetic parameters were calculated by WinNonlin software version 5.2.1 (Pharsight Corporation, Mountain View, USA) based on noncompartmental analysis.\nSprague-Dawley rats (purchased from Shanghai SLAC laboratory animal Co. Ltd., Shanghai, China) were fasted for 12 h with free access to water prior to the pharmacokinetic study. The rats were randomized into two groups for oral administration (5 mg/kg) and intravenous injection (1 mg/kg). Blood samples were collected from the orbital plexus into heparinized centrifuge tubes at fifteen different time points between 5 min to 36 h for the oral administration group and nine time points between 5 min to 6 h for the intravenous one. The pharmacokinetic parameters were calculated by WinNonlin software version 5.2.1 based on noncompartmental analysis. Oral bioavailability was calculated as F (%)=AUC0-∞(p.o.)/AUC0-∞(i.v.)×Dose (i.v.)/Dose (p.o.)."}, "[3]": {"test_system": "CYP2C11, CYP3A1/2 and CYP1A2", "conditions": "mouse, in vivo", "procedure": "FIG. 6A-FIG. 6H. Pharmacokinetic studies of AIL. […] Images show tumors at harvest (30 days after treatment). Scale bar, 1 cm. […] AIL or vehicle control was measured by Western blotting analysis (D) and the livers were photographed and stained with HE (e). Scale bar, the black scale bar is 1 cm (top) and the white scale bar is 50 μm (bottom). […] Scale bar, 1 cm."}, "[4]": {"conditions": "Sprague-Dawley, rat, in vivo, iv, 1 mg/kg"}, "[5]": {"conditions": "Sprague-Dawley, rat, in vivo, po, 5 mg/kg"}}, "data": [{"smiles": "CNC(=O)c1ccc(N2C(=S)N(c3ccc(C#N)c(C(F)(F)F)c3)C(=O)C2(C)C)cc1F", "note": "[MDV]", "values": [{"measurement": "cell growth (SRB)", "setting": "LNCaP-MDV3100-R cells", "result": "totally resistant"}, {"measurement": "cell growth (SRB)", "setting": "LNCaP cells", "result": "effectively blocked cell growth"}, {"measurement": "xenograft sensitivity (tumor volume)", "setting": "VCaP xenografts", "result": "still responded"}, {"measurement": "reduction of tumor volume", "setting": "[1]", "result": 15, "unit": "%"}, {"measurement": "cell growth (SRB)", "setting": "c4-2b", "result": "could not significantly inhibit cell growth"}, {"measurement": "cell growth (SRB)", "setting": "22RV1", "result": "could not significantly inhibit cell growth"}, {"measurement": "PSA mRNA level in the presence of R1881", "setting": "[2]", "result": "decreased"}]}, {"smiles": "C=CCNC1=C2C[C@@H](C)C[C@H](OC)[C@H](O)[C@@H](C)/C=C(\\C)[C@H](OC(N)=O)[C@@H](OC)/C=C\\C=C(/C)C(=O)NC(=CC1=O)C2=O", "note": "[17-AAG]", "values": [{"measurement": "HSP90 and HSP70 protein levels", "setting": "HSP90 and HSP70", "result": "induced up-regulation of HSP90 and HSP70 protein"}]}, {"smiles": "C=C1[C@@H](O)[C@]2(O)OC[C@]34[C@H]2[C@@]2(C)[C@H](O)C(=O)C=C(C)[C@@H]2C[C@H]3OC(=O)C[C@@H]14", "note": "[AIL, 11β,20-Epoxy-1β,11,12α-trihydroxypicrasa-3,13(21)-diene-2,16-dione]", "values": [{"measurement": "Bioavailability (oral)", "setting": "in vivo; Sprague-Dawley, rat, in vivo", "result": 25.7, "unit": "%"}, {"measurement": "bioavailability", "setting": "in vivo; Sprague-Dawley, rat, in vivo", "result": "> 20", "unit": "%"}, {"measurement": "AUC0-t", "setting": "in vivo; [4]", "result": "57874.3 ± 6871.1", "unit": "ng·min/mL"}, {"measurement": "AUC0-∞", "setting": "in vivo; [4]", "result": "61517.4 ± 5986.2", "unit": "ng·min/mL"}, {"measurement": "AUC0-t", "setting": "in vivo; [5]", "result": "67324.5 ± 7405.3", "unit": "ng·min/mL"}, {"measurement": "AUC0-∞", "setting": "in vivo; [5]", "result": "79053.9 ± 14616.6", "unit": "ng·min/mL"}, {"measurement": "absorption, elimination and distribution after oral administration", "setting": "in vivo; rat, in vivo, po", "result": "absorbed quickly, eliminated rapidly and distributed widely in tissues"}, {"measurement": "T1/2", "setting": "in vivo; i.v. 1 mg kg^−1, mean ± s.d.", "result": "1.888 ± 0.66", "unit": "h"}, {"measurement": "T1/2", "setting": "in vivo; p.o. 5 mg kg^−1, mean ± s.d.", "result": "12.17 ± 2.598", "unit": "h"}, {"measurement": "expression of CYP enzymes in liver", "setting": "[3]", "result": "did not influence the expression"}]}]}
